Measurements as given in patent US7371775B2, “7-carboxymethyloxy-3′,4′,5-trimethoxy flavone monohydrate, the preparation method and uses thereof” (Dong-A Pharmaceuticals Co., Ltd, priority 2003, dated 2008).
Where two headings read alike, the source gives them in different places.

Key:
[1] = Hygroscopicity test: weight changes at 25° C., 75% relative humidity; type: physicochemical
Protocol: 7-carboxymethyloxy-3′,4′,5-trimethoxy flavone.monohydrate prepared in the above example 1 or example 2 was exactly measured by using a weighing bottle (6 cm in diameter). 1 g of the 7-carboxymethyloxy-3′,4′,5-trimethoxy flavone.monohydrate was prepared as a sample. The sample was kept in a vessel in which temperature was set; at 25° C. and 75% relative humidity was maintained. Weight changes of the sample were measured after 2, 4, and 6 hours and on the first day, on the 3rd day, and on the 6th day. The amount of weight change was calculated as percentage to the starting weight of the sample and the results are shown in Table 1.
Weight changes of 7-carboxymethyloxy-3′,4′,5-trimethoxy flavone.anhydride prepared in the comparative example were also measured by the same method as mentioned above, and the results are shown in Table 1.

[2] = Test of conversion of ethanol solvate into monohydrate: weight changes at 25° C., 75% relative humidity; type: physicochemical
Protocol: 7-carboxymethyloxy-3′,4′,5-trimethoxy flavone.monohydrate prepared in the above example 1 or example 2 was measured by using a weighing bottle (6 cm in diameter). 1 g of the 7-carboxymethyloxy-3′,4′,5-trimethoxy flavone.monohydrate was prepared as a sample. The sample was kept in a receptacle in which temperature was set at 25° C. and 75% relative humidity. On the let, 1st, 2nd, 3rd and 6th day, the weight of samples were measured.
Weight changes of 7-carboxymethyloxy-3′,4′,5-trimethoxy flavone.ethanol solvate prepared in the above example 3 were also investigated by the same method as mentioned above, and the results are shown in Table 2.

[3] = tested on: TNBS-induced colitis model; assay: Model of inflammatory bowel diseases induced with TNBS (lesion score); type: in vivo, male SD rats
Protocol: The modified method of Shibata et al. (Dig. Endosc. 1993, 5: 13) was used. 7 week-old male SD rats (CRJ) were fasted for a day, and the rats were put under anesthesia and canula (diameter 3 mm) was inserted into the anus to the depth of 8 cm. 25 mg/ml of TNBS (Trinitrobenzene sulfonic acid) dissolved in 50% ethanol solution was injected to each rat and the rats were positioned at feature of tail up for 1 minute. The solution flowing out was removed and the rats were once washed with 1.5 ml of saline solution. After colitis was induced, the compound of the present invention was administered orally or rectally from the next day of inducing to the 6th day. For control medicine, sulfasalazine […] was used for oral administration and prednisolone was used for rectal administration. And for control group, 5% HPMC was administered. On the 7th day of experiment, each group of the rats was put under ether anesthesia for autopsy. The colon was extracted. After 1% formalin solution was injected into the cavity of the extracted colon to inflate, the both ends of it were bonded with each other, which was then fixed in 1% formalin solution for 2 hours. The all-fixed colon was cut to lengthy direction and washed to remove surrounding fat tissues and connective fissaes. Cecum was removed and the weight of the colon and the rectum was measured. The area of ulcer lesion and inflammatory region were measured to mark scores according to the criterion. Then they were fixed in 10% neutral formalin solution, and the tissue examination of lesion site was performed by a general method to mark scores according to criterion.
Clinical symptoms: Daily, clinical symptoms and survival of the animals were observed. The weight of animals was measured at the beginning day, the 3rd day and the 8th day of the experiment.
Observation with naked eye: The number and the width of the ulcer and lesion area formed in the large intestine were measured and recorded. By using modified Wallace's method (Can. J. Physiol. Pharmacol., 1988, 66: 422), lesion examined with the naked eye was scored and the average value of each group was compared. The standard of lesion scores as criterion of the damage of the colon by Wallace's method […] is as follows.
(0: normal, non-damaged, 1: congestion without ulcer, 2: congestion and thickening of intestinal wall without ulcer, 3: an ulcer lesion without thickening of intestinal wall, 4: more than two ulcerous/inflammatory lesion, 5: more than two ulcerous/inflammatory lesion or the length of ulcerous/inflammatory lesion is more than 1 cm, 6-10: when the length of lesion is over 2 cm, one point increases every time 1 cm of the length of ulcerous/inflammatory increases, for example: when the ulcer length is 3 cm, the point is 7)
Pathological tissue examination: The colon was trimmed at 3 cm interval from the rectum to the cecum, including the site of lesion examined with the naked eye, to make at least 4 specimens per an individual. Pathological tissue examination on the specimens was performed and the results were scored by modified method of Moyama (Ann. Clin. Lab. Sci., 1990, 20: 420). And the highest score was regarded as the score of an individual. When the lesion cannot be examined with the naked eye, the other specimen having lesion was trimmed, at 3 cm interval, from another individual.

[4] = tested on: gastric mucosal damage induced by ethanolic-HCl; assay: Gastric mucosal damaged model induced by ethanolic-HCl (ulcer index); type: in vivo, SD male rats; conditions: rats, oral; for ED50: Rattus norvegicus, 1 hour before 150 mM HCl-80% ethanol, ulcer index
Protocol: SD male rats (250-350 g) were fasted for 24 hours. The compound of the present invention was orally administered in suspension of 5% HPMC, and after 1 hour, 1.5 ml of 150 mM HCl-80% ethanol was orally administered. After 1 hour, the rats were sacrificed and the stomachs were extracted to measure ulcer index. The ulcer index was shown by the area (mm^2) of hemorrhage lesion (Mizui, T, et al., Jpn. J. Pharmacol. 1983, 33: 939).
Rebamipide [2-(4-chlorobenzoylamino)-3-(2-(1H)-quinolinone-4-yl)propanonic acid] (Trade Name: Mucosta) was used as a control medicine.

[5] = listed as 7-carboxymethyloxy-3′,4′,5-trimethoxy flavone.monohydrate

COc1ccc(-c2cc(=O)c3c(OC)cc(OCC(=O)O)cc3o2)cc1OC [Anhydride, reference compound]
Weight changes according to the time lapse (%) ([1]; 0 h): 0%
Weight changes according to the time lapse (%) ([1]; 2 h): +3.4%
Weight changes according to the time lapse (%) ([1]; 2 h, listed as 7-carboxymethyloxy-3′,4′,5-trimethoxy flavone.anhydride): 3.4%
Weight changes according to the time lapse (%) ([1]; 4 h): +4.7%
Weight changes according to the time lapse (%) ([1]; 6 h): +4.7%
Weight changes according to the time lapse (%) ([1]; 1 day): +4.6%
Weight changes according to the time lapse (%) ([1]; 3 day): +4.5%
Weight changes according to the time lapse (%) ([1]; 6 day): +4.6%
weight increase (average) ([1]; from the 4th hour): 4.6%

COc1ccc(-c2cc(=O)c3c(OC)cc(OCC(=O)O)cc3o2)cc1OC [Ethanol solvate, 7-carboxymethyloxy-3′,4′,5-trimethoxy flavone.ethanol solvate]
weight change / conversion (in words) [2]: converted into monohydrate
Weight changes according to the time lapse (%) ([2]; 0 day): 0%
Weight changes according to the time lapse (%) ([2]; 1 day): −4.1%
Weight changes according to the time lapse (%) ([2]; 2 day): −6.5%
Weight changes according to the time lapse (%) ([2]; 3 day): −6.5%
Weight changes according to the time lapse (%) ([2]; 6 day): −6.5%
weight decrease (average) ([2]; after one day): 4.1%
weight decrease (average) ([2]; after two days, constant thereafter): 6.5%

COc1ccc(-c2cc(=O)c3c(OC)cc(OCC(=O)O)cc3o2)cc1OC [Monohydrate, 7-carboxymethyloxy-3′,4′,5-trimethoxy flavone.monohydrate]
effect on the TNBS-induced inflammatory colitis model (in words) ([3]; oral and rectal administration): showed inhibiting effect
Lesion score ([3]; orally administered, 0.3 mg/kg p.o, control 5% HPMC 9.0): 7.5
Lesion score ([3]; orally administered, 3 mg/kg p.o, control 5% HPMC 9.0): 5.9
Lesion score ([3]; rectally administered, 0.3 mg/kg, control 5% HPMC 5.3): 2.0
Weight changes according to the time lapse (%) ([1]; 0 h): 0%
Weight changes according to the time lapse (%) ([1]; 2 h): −0.2%
Weight changes according to the time lapse (%) ([1]; 4 h): −0.3%
Weight changes according to the time lapse (%) ([1]; 6 h): +0.2%
Weight changes according to the time lapse (%) ([1]; 1 day): −0.3%
Weight changes according to the time lapse (%) ([1]; 3 day): +0.3%
Weight changes according to the time lapse (%) ([1]; 6 day): +0.3%
weight change / hygroscopicity (in words) [1, 5]: did not show any weight change
weight change / hygroscopicity (in words) ([1]; listed as monohydrate): no weight change
Weight changes according to the time lapse (%) ([2]; 0 day): 0%
Weight changes according to the time lapse (%) ([2]; 1 day): −0.3%
Weight changes according to the time lapse (%) ([2]; 2 day): +0.3%
Weight changes according to the time lapse (%) ([2]; 3 day): +0.3%
Weight changes according to the time lapse (%) ([2]; 6 day): +0.3%
weight change / conversion (in words) [2, 5]: did not show any weight change
ED50 [4]: 0.33 mg/kg
protecting effect on the damage of gastric mucosa relative to Rebamipide ([4]; ratio of ED50): at least 100 times

C[C@]12C=CC(=O)C=C1CC[C@@H]1[C@@H]2[C@@H](O)C[C@@]2(C)[C@H]1CC[C@]2(O)C(=O)CO [Prednisolone, reference compound]
Lesion score ([3]; rectally administered, 1 mg/kg, control 5% HPMC 5.3): 4.8

O=C(NC(Cc1cc(=O)[nH]c2ccccc12)C(=O)O)c1ccc(Cl)cc1 (centres unmarked) [Rebamipide, 2-(4-chlorobenzoylamino)-3-(2-(1H)-quinolinone-4-yl)propanonic acid, reference compound]
ED50 [4]: 44.2 mg/kg

O=C(O)c1cc(/N=N/c2ccc(S(=O)(=O)Nc3ccccn3)cc2)ccc1O [Sulfasalazine, reference compound]
Lesion score ([3]; orally administered, 100 mg/kg p.o, control 5% HPMC 9.0): 7.7
